Values of other authors as cited in PMC3964610 (Methods in molecular biology (Clifton, N.J.), 2012).

Conditions: I.P. 10 mg/kg, male Swiss Albino mice, plasma; ref [17]

For `CCC(=O)N1CCN(c2ccc(-n3c(=O)ccc4cnc5ccc(-c6cnc7ccccc7c6)cc5c43)cc2C(F)(F)F)CC1` [Torin1, 1-(4-(4-propionylpiperazin-1-yl)-3-(trifluoromethyl)phenyl)-9-(quinolin-3-yl)benzo[h][1,6]naphthyridin-2(1H)-one], the AUC is listed as 5718 ng·h/mL, the Cmax is listed as 5121 ng/mL and the Tmax is listed as 4.8 min.
